Measurements taken from ChEMBL document CHEMBL1201862, “PubChem BioAssay data set” (2004).
Each block holds one compound with its values, some of them ahead of it. Active and inactive are the calls of the source.

Key:
[1] = SFLLRN-induced P-Selectin Platelet Surface Expression Measured in Cell-Based System Using Flow Cytometry - 2016-03_Inhibitor_Dose_DryPowder_Activity_Set3. [Related pubchem assays (depositor defined):AID1678]; type: functional
[2] = Luminescence Cell-Based Dose Response Follow up to Identify Inhibitors of Platelet Dense Granule Release. [Related pubchem assays (depositor defined):AID1663, AID1678, AID1889, AID2519]; type: functional
[3] = target: T1, Mannose-6-phosphate isomerase (Homo sapiens, UniProt P34949); assay: phosphomannose isomerase inhibition – biochemical, fluorescence intensity, confirmation (AID 1535)
T1 sequence (P34949 whole entry): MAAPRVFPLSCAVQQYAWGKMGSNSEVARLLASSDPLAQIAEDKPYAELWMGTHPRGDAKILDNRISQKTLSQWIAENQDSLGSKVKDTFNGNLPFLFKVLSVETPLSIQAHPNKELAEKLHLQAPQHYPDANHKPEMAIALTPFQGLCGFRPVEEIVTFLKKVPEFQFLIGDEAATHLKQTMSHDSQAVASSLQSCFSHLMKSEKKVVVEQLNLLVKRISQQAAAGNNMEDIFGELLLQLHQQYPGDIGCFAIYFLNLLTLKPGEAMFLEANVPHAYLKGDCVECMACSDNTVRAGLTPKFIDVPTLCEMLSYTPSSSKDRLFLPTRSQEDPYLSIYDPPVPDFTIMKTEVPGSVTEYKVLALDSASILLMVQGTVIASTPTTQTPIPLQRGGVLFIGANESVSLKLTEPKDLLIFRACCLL

[4] = restored growth of temperature-sensitive Burl-1 yeast – whole organism, S. cerevisiae, Burl-1 ts mutant, luminescence, counter-screen for SUMOylation pathway inhibitor project, dose response (AID 463199); type: functional
[5] = T. cruzi infection blockers in NIH3T3 cells – beta-gal luminescence, NIH3T3 host cells, confirmation (AID 2630); type: functional, cell-based; details: Mus musculus

Structure (SMILES): CC(=O)Nc1cccc(NC(=O)c2ccccc2Cl)c1
AC50 [1]: 53.9 µM (active)
EC50 [2]: 147 µM (active)

IC50 [3]: 44.9 µM (active)
Structure (SMILES): O=c1c2ccccc2[nH]n1-c1ccccc1

Structure (SMILES): CSc1ccc(Cl)c(C(=O)Nc2ccc(N3CCOCC3)cc2)c1
AC50 [4]: 57.3 µM (active)

Structure (SMILES): Cn1cc(CN2CCCC(C(=O)c3ccc(C(C)(C)C)cc3)C2)cn1 (stereo not given)
EC50 [5]: 1.25 µM (active)
